# Results from PMC11054271, “ABCG2 Transports the Flukicide Nitroxynil and Affects Its Biodistribution and Secretion into Milk” (Pharmaceutics, 2024).
# Assays:
# murine Abcg2 [1] = target: T1, murine Abcg2 (Mus musculus, UniProt Q7TMS5); assay: Plasma pharmacokinetics in wild-type and Abcg2−/− male mice; type: in vivo; set-up: from tissue; host or cells: whole animal: wild-type vs Abcg2-/- mice, >99% FVB/N background; conditions: 10 mg/kg s.c.
# T1 sequence (Q7TMS5 1-657): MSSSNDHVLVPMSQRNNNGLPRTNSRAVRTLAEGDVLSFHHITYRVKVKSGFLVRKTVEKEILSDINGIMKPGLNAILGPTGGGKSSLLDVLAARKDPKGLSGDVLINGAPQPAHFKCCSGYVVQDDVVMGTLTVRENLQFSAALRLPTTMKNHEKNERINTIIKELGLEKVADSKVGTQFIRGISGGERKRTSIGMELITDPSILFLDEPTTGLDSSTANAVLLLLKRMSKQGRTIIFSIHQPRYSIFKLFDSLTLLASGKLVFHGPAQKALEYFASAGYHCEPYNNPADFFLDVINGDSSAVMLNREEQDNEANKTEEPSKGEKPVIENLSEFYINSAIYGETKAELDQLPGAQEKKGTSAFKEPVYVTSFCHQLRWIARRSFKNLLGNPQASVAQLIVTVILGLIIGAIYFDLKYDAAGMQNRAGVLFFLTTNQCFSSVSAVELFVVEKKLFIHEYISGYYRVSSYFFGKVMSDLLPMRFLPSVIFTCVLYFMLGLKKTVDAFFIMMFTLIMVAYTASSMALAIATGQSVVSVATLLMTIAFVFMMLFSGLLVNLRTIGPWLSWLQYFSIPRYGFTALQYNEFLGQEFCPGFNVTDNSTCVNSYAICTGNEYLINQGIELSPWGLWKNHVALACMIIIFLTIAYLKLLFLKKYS
# Protocol: (§1) All in vivo experiments were carried out using wild-type and Abcg2^−/− mice aged between 8 and 17 weeks, all of >99% FVB/N genetic background, generated and gently supplied by A. H. Schinkel (Netherlands Cancer Institute). Mice were housed and handled complying with institutional and ARRIVE guidelines and European legislation (EU Directive 2010/63/EU for animal experiments). Additionally, experimental procedures were approved by the Animal Care and Use Committee of the University of León and the Junta de Castilla y León (ULE_011_2019).
# For pharmacokinetic experiments, a single dose of nitroxynil at 10 mg/kg was administered subcutaneously to wild-type and Abcg2^−/− male mice (n = 4–5, for each time point). Distomicide® (250 mg/mL) commercial solution was dissolved in saline (sodium chloride 0.9%) and dosed at 200 μL per 30 g body weight. Blood samples were collected at different time points (0.5, 3, 4.5, 6, 24, 48 and 96 h) and heparinized blood samples were centrifugated for 15 min at 3000× g. […]
# Plasma, milk and tissue samples from each animal were individually processed and analyzed without pooling, while samples from transport assays were not processed. […]
# (§2) Waters 2695 separation module and Waters 2998 UV photodiode array detector set at 270 nm were used for samples analysis. […] Limit of detection (LOD) and quantification (LOQ) were calculated as previously described. […]
# murine Abcg2 [2] = target: T1, murine Abcg2; assay: Tissue distribution in wild-type and Abcg2−/− male mice; type: in vivo; set-up: from tissue; host or cells: whole animal: wild-type vs Abcg2-/- mice, >99% FVB/N background
# Protocol: as §1
# For pharmacokinetic experiments, a single dose of nitroxynil at 10 mg/kg was administered subcutaneously to wild-type and Abcg2^−/− male mice (n = 4–5, for each time point). Distomicide® (250 mg/mL) commercial solution was dissolved in saline (sodium chloride 0.9%) and dosed at 200 μL per 30 g body weight. Blood samples were collected at different time points (0.5, 3, 4.5, 6, 24, 48 and 96 h) and heparinized blood samples were centrifugated for 15 min at 3000× g. Organs were also collected at 24 and 96 h after euthanasia. Linear trapezoidal rule was used to calculate the area under the plasma concentration–time curve (AUC) parameter.
# Plasma, milk and tissue samples from each animal were individually processed and analyzed without pooling, while samples from transport assays were not processed. Tissue samples were homogenized in a mixture of 50% water/50% methanol HCl 0.5% (v/v); 1 mL solution per 0.1 g tissue. The entire amount of collected milk (74.7–295.1 mg) and 100 μL plasma and tissue homogenates were processed. To each sample, 10 μL of a nitrofurantoin solution (10 μg/mL for plasma and milk and 2 μg/mL for homogenized tissues) was added as an internal standard and 150 μL acetonitrile was used to precipitate the proteins. The mixture was vortexed horizontally for 15 min and centrifugated at 10,000× g for 5 min at 4 °C. Supernatant was transferred to a new tube and dried at 40 °C under N2 stream. Samples were reconstituted in 100 μL of mobile phase and 50 μL was injected into HPLC. Standards were subjected to the same procedures as samples.
# Waters 2695 separation module and Waters 2998 UV photodiode array detector set at 270 nm were used for samples analysis. Chromatographic conditions for nitroxynil detection were based on previously described methods, with minor modifications. Chromatographic separation was achieved on a reverse-phase column (Synergy 4 μm Hydro–RP 80 Å, 250 × 4.60 mm; Phenomenex®, Torrance, CA, USA) using an isocratic binary mobile phase consisting of 25 mM potassium phosphate monobasic (KH2PO4), pH 4: acetonitrile (70:30 for culture samples and 80:20 for animal samples) at a flow rate of 1 mL/min. Autosampler and column temperature were 4 °C and 40 °C, respectively. Limit of detection (LOD) and quantification (LOQ) were calculated as previously described. For cell culture samples, LOD and LOQ were 0.003 μg/mL and 0.007 μg/mL, respectively. For in vivo samples, LOD was in the range of 0.01–0.07 μg/mL and LOQ in the range of 0.03–0.15 μg/mL.
# murine Abcg2 [3] = target: T1, murine Abcg2; assay: Transepithelial transport assay in MDCK-II cells transduced with murine Abcg2; type: in vitro ADME; set-up: expressed in transfected cells; host or cells: MDCK-II (canine kidney) subclone, provided by A. H. Schinkel (Netherlands Cancer Institute); conditions: MDCK-II mAbcg2, nitroxynil 10 µM, no Ko143, read-out: Relative efflux transport ratio (BA/AB)
# Protocol: Parental Madin–Darby canine kidney epithelial cells (MDCK–II) and their subclones transduced with murine (mAbcg2) and human (hABCG2) variants of ABCG2 were kindly provided by Dr. A. H. Schinkel (Netherlands Cancer Institute). Transduced MDCK–II cells with the ovine (oABCG2) and bovine (bABCG2) variants were previously generated by our group. Cells were cultured as described elsewhere.
# Transepithelial transport assays were carried out as previously described with minor variations, using Hanks’ balanced salt solution (Sigma-Aldrich) supplemented with HEPES (25 mM), with or without Ko143 (1 μM), and containing or not nitroxynil 10 μM. […] At the end of the experiment, confluence of the monolayer was measured with the previously described Lucifer Yellow permeability test, with minor modifications. The appearance of nitroxynil in the opposite side of the well was measured by HPLC as later described. Active transport was expressed as relative efflux transport ratio (apically directed transport percentage divided by the basolaterally directed translocation percentage) at 4 h and referred to the initial concentration. […]
# as §2
# [4] = wild-type male mice, 96 h, 10 mg/kg s.c.
compound,measurement,setting,value
N#Cc1cc(I)c(O)c([N+](=O)[O-])c1 [nitroxynil],AUC,"murine Abcg2 [1]; FVB/N, mouse, plasma, sc, wild-type male mice, 0.5-96 h",1920 ± 49.1 µg·h/mL
same,"Plasma AUC, fold higher in Abcg2−/− compared with wild-type",murine Abcg2 [1]; male mice,1.8 fold
same,"Concentration in kidney, small intestine and testis, fold higher in Abcg2−/− mice","murine Abcg2 [2]; abstract statement, time not given",~2 fold
same,"Small intestine levels, fold higher in Abcg2−/− compared with wild-type","murine Abcg2 [2]; male mice, 24 h, 10 mg/kg s.c.",1.4 fold
same,"Spleen accumulation, fold higher in Abcg2−/− compared with wild-type","murine Abcg2 [2]; male mice, 24 h, 10 mg/kg s.c.",1.7 fold
same,"Testis concentration, fold higher in Abcg2−/− compared with wild-type","murine Abcg2 [2]; male mice, 24 h, 10 mg/kg s.c.",~1.6 fold
same,"Tissue concentration, liver",murine Abcg2 [2]; [4],<LOQ
same,"Tissue concentration, small intestine",murine Abcg2 [2]; [4],<LOQ
same,"Tissue concentration, spleen",murine Abcg2 [2]; [4],<LOQ
same,"Tissue concentration, testis",murine Abcg2 [2]; [4],<LOQ
same,"efflux ratio at 4 h, 10 µM",murine Abcg2 [3],32.3 ± 7.59
